Source: US11224224B2, “Thiobenzoimidazole as fungicides” (REDAG CROP PROTECTION LTD, priority 2017, dated 2022)
Converted amounts (≈) assume the structure as drawn.

Columns and labels:
Format in all cases: cell-based
Pythium ultimum = assay: Amended agar assay (PDA), colony growth; design: key to % control Pythium ultimum 20 ppm: D: no control detected at this concentration; C: up to 50% control; B: from 50 to 99% control; A: a control of greater than 99%, i.e. no detectable colony growth; details: for inhibition of growth at 20 ppm / EC50: Globisporangium ultimum; for inhibition of growth at 20 ppm / % control Pythium ultimum 20 ppm: 20 ppm in amended PDA, 18° C., reduction in colony growth vs control plate; for EC50: amended agar, 5-fold dilutions
Method: (§1) Testing was carried out on potato dextrose agar (PDA) amended with each compound at a test concentration of 20 ppm. Amended agar was poured into three replicate 9 cm petri dishes. Each replicate dish was inoculated in the centre with a 5 mm agar plug taken from the leading edge of a culture aged between 2 and 7 days old; the age of the culture was dependant on the growth rate of the pathogen being tested. The test pathogens were Pythium ultimum and Phytophthora cinnamomi. Plates were incubated at 18° C. and the diameter of each colony measured before growth on the fastest growing plate reached the plate edge. This varied between 2 and 7 days depending on the growth rate of test pathogens. The % reduction in colony growth compared to the control plate was calculated for each pathogen. The results are provided in Table 1, in which D represents no control detected at this concentration; C represents up to 50% control; B from 50 to 99% control; and A represents a control of greater than 99%, i.e. no detectable colony growth.
(§2) Alternatively, or in addition, the same assay was conducted at descending test concentrations with 5-fold dilutions typically down to 0.032 ppm though sometimes as low as 0.00026 ppm, and an EC50 (the concentration at which 50% control would be achieved) was determined. The results are provided in Table 1 in which G represents an EC50 above 20 ppm, F represents an EC50 of 1-20 ppm and E represents and EC50 less than 1 ppm.

Phytophthora cinnamomi = assay: Amended agar assay (PDA), colony growth; design: key to % control Phytophthora spp. 20 ppm: D: no control detected at this concentration; C: up to 50% control; B: from 50 to 99% control; A: a control of greater than 99%, i.e. no detectable colony growth; details: for inhibition of growth at 20 ppm / EC50: Phytophthora cinnamomi; for inhibition of growth at 20 ppm / % control Phytophthora spp. 20 ppm: 20 ppm in amended PDA, 18° C., reduction in colony growth vs control plate; for inhibition of growth at 20 ppm: read-out: % control Phytophthora spp. 20 ppm; for EC50: amended agar, 5-fold dilutions (cells without *), read-out: EC50 Phytophthora spp.
Method: as §1, §2

oomycete plant pathogens = assay: Fungicidal activity testing, overall summary; details: summary statement on Table 1
Method: The activity of compounds of the invention was assessed by testing against certain oomycete plant pathogens and representative data are presented in Table 1.

| SMILES | inhibition of growth at 20 ppm (Pythium ultimum) [%] | inhibition of growth at 20 ppm (Phytophthora cinnamomi) [%] | control over the pathogens tested (oomycete plant pathogens) | EC50 (Pythium ultimum) [µg/mL] | EC50 (Phytophthora cinnamomi) [µg/mL] | % control Pythium ultimum 20 ppm (Pythium ultimum) | % control Phytophthora spp. 20 ppm (Phytophthora cinnamomi) |
| --- | --- | --- | --- | --- | --- | --- | --- |
| Cn1nnnc1-n1c(SCc2cccc(N)n2)nc2ccccc21 [Example 26, 6-(((1-(1-Methyl-1H-tetrazol-5-yl)-1H-benzo[d]imidazol-2-yl)thio)methyl)pyridin-2-amine] | > 99 | > 99 | good to excellent control |  |  |  |  |
| c1ccc(CSc2nc3ccccc3n2-c2ncon2)nc1 [Compound 31] | < 50 |  |  | > 20 | > 20 |  |  |
| Cc1nc(CSc2nc3ccccc3n2-c2nnnn2C)cs1 [Example 16] | > 99 | 50 to 99 | good to excellent control | 1 to 20 (≈ 2.91 to 58.2 µM) | 1 to 20 (≈ 2.91 to 58.2 µM) |  |  |
| CC(=O)Nc1cccc(CSc2nc3ccccc3n2-c2nnnn2C)n1 [Example 27, N-(6-(((1-(1-Methyl-1H-tetrazol-5-yl)-1H-benzo[d]imidazol-2-yl)thio)methyl)pyridin-2-yl)acetamide] | > 99 | 50 to 99 | good to excellent control |  |  |  |  |
| Cc1cc(-n2c(SCc3ccccn3)nc3ccccc32)sn1 [Example 14] | < 50 | < 50 |  |  |  |  |  |
| CC(=O)Nc1nc(CSc2nc3ccccc3n2-c2nnnn2C)cs1 [Example 11] |  |  | good to excellent control | < 1 | < 1 |  |  |
| Cn1nnnc1-n1c(SCc2cnc(Cl)s2)nc2ccccc21 [Compound 30] |  |  |  | > 20 | > 20 | D | D |
| Cn1nnnc1-n1c(SCc2cc3ccccc3cn2)nc2ccccc21 [Example 19] | 50 to 99 | 50 to 99 |  |  |  |  |  |
| Cc1nccnc1-n1c(SCc2ccccn2)nc2ccccc21 [Example 20] | < 50 |  |  | > 20 | > 20 |  | D |
| Cn1nnnc1-n1c(SCc2csc(NC(=O)OC(C)(C)C)n2)nc2ccccc21 [Example 23] |  |  | good to excellent control | < 1 | < 1 |  |  |
| COC(=O)CSc1nc2ccccc2n1-c1nnnn1C [Example 24] | < 50 | 50 to 99 |  |  |  |  |  |
| Cn1nnnc1-n1c(SCc2csc(N)n2)nc2ccccc21 [Example 3] | > 99 | > 99 | good to excellent control |  |  |  |  |
| COC(=O)c1cccc(CSc2nc3ccccc3n2-c2ncccc2C)n1 [Example 46] |  | < 50 |  |  |  | D |  |
| O=C(Nc1cccc(CSc2nc3ccccc3n2-c2ncncc2Cl)n1)C(F)(F)Oc1ccccc1 [Example 45] |  |  | good to excellent control | < 1 | < 1 |  |  |
| Cn1nnnc1-n1c(SCc2cccc(C(=O)O)n2)nc2ccccc21 [Compound 29] |  | < 50 |  |  |  | D |  |
| Cn1ccnc1-n1c(SCc2cccc(NC(=O)C(F)(F)Oc3ccccc3)n2)nc2ccccc21 [Example 50] |  |  | good to excellent control | < 1 | < 1 |  |  |
| Cn1nnnc1-n1c(SCc2cccc(NC(=O)C(F)(F)Oc3ccccc3)n2)nc2ccccc21 [Example 1, 2,2-Difluoro-N-(6-(((1-(1-methyl-1H-tetrazol-5-yl)-1H-benzo[d]imidazol-2-yl)thio)methyl)pyridin-2-yl)-2-phenoxyacetamide] | > 99 | > 99 | good to excellent control | < 1 | < 1 |  |  |
| Cn1nccc1-n1c(SCc2ccccn2)nc2ccccc21 [Example 5] | < 50 | < 50 |  |  |  |  |  |

| SMILES | inhibition of growth at 20 ppm (Pythium ultimum) [%] | inhibition of growth at 20 ppm (Phytophthora cinnamomi) [%] | control over the pathogens tested (oomycete plant pathogens) | EC50 (Pythium ultimum) [µg/mL] | EC50 (Phytophthora cinnamomi) [µg/mL] | % control Pythium ultimum 20 ppm (Pythium ultimum) | % control Phytophthora spp. 20 ppm (Phytophthora cinnamomi) |
| --- | --- | --- | --- | --- | --- | --- | --- |
| Cc1cccc(CSc2nc3ccccc3n2-c2nnnn2C)n1 [Example 13] | < 50 |  |  | > 20 | > 20 |  | D |
| COC(=O)c1cccc(CSc2nc3ccccc3n2-c2nnnn2C)n1 [Example 18] | < 50 |  |  |  |  |  | D |
| Cn1nnnc1-n1c(SCc2cccc(NC(=O)OC(C)(C)C)n2)nc2ccccc21 [Example 9] |  |  | good to excellent control | < 1 | < 1 |  |  |
| CCOC(=O)Nc1cccc(CSc2nc3ccccc3n2-c2nnnn2C)n1 [Example 28, Ethyl (6-(((1-(1-methyl-1H-tetrazol-5-yl)-1H-benzo[d]imidazol-2-yl)thio)methyl)pyridin-2-yl)carbamate] |  |  | good to excellent control | < 1 | < 1 |  |  |
| Cn1nnnc1-n1c(SCc2csc(NC(=O)C(F)(F)Oc3ccccc3)n2)nc2ccccc21 [Example 22] |  |  | good to excellent control | < 1 | < 1 |  |  |
| Cn1nnnc1-n1c(SCc2csc(NC(=O)OC(C)(C)C)n2)nc2ccc(Br)cc21 [Example 53] |  |  | good to excellent control | < 1 | < 1 |  |  |
| Cn1ccnc1-n1c(SCc2ccccn2)nc2ccccc21 [Example 49] | > 99 | 50 to 99 | good to excellent control | 1 to 20 (≈ 3.11 to 62.2 µM) | 1 to 20 (≈ 3.11 to 62.2 µM) |  |  |
| Cn1nnnc1-n1c(SCc2ccccn2)nc2c(F)cc(F)cc21 [Example 21] | > 99 | > 99 | good to excellent control | < 1 | < 1 |  |  |
| Cn1nnnc1-n1c(SCc2cscn2)nc2ccccc21 [Example 12] |  |  | good to excellent control | < 1 | < 1 |  |  |
| Cn1nnnc1-n1c(SCc2ccccn2)nc2ccc(Br)cc21 [Example 52] | 50 to 99 | 50 to 99 | good to excellent control | 1 to 20 (≈ 2.49 to 49.7 µM) | < 1 |  |  |
| Cc1cccnc1-n1c(SCc2ccccn2)nc2ccccc21 [Example 10] | 50 to 99 | < 50 |  |  |  |  |  |
| CNc1nc(CSc2nc3ccccc3n2-c2nnnn2C)cs1 [Example 17] | > 99 | > 99 | good to excellent control | < 1 | < 1 |  |  |
| c1ccc(CSc2nc3ccccc3n2-c2ccon2)nc1 [Example 15] | < 50 |  |  | > 20 | > 20 |  | D |
| Cc1noc(-n2c(SCc3ccccn3)nc3ccccc32)c1C [Example 6] | 50 to 99 | 50 to 99 |  |  |  |  |  |
| Cc1cccnc1-n1c(SCc2cccc(NCC(F)(F)Oc3ccccc3)n2)nc2ccccc21 [Example 4] |  |  |  | 1 to 20 (≈ 1.99 to 39.7 µM) | 1 to 20 (≈ 1.99 to 39.7 µM) |  |  |
| c1ccc(CSc2nc3ccccc3n2-c2ccccn2)nc1 [Compound 32] |  |  |  |  |  | D | D |
| O=C(Nc1cccc(CSc2nc3ccccc3n2-c2ccccn2)n1)C(F)(F)Oc1ccccc1 [Compound 33] |  |  |  | > 20 | > 20 | D | D |
